PubChem BioAssay (NCI)
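GI50 marks 50% less growth. TGI: total growth inhibition.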 Numbered stars: 1 amine (or outer) side, 2 acyl side, 3 side chain; on linkers, the order of the positions; unused ones are H or OH. Bridge positions count the residues as written; N and C are the ends. Square brackets hold non-standard residues; d marks the D form. Peptide text beside a SMILES is read from it. I, II: the chains in the order shown. Actinocin(9to1) = Cc1c2oc3c(C)ccc(C(=O)[*:1])c3nc-2c(C(=O)[*:2])c(N)c1=O; aThr = C[C@H](O)[C@H](N)C(=O)O; NMeV = CN[C@H](C(=O)O)C(C)C; Sar = CNCC(=O)O

Experiments:
Experiment in all cases: NCI anticancer screen, dose series, 384-well format
[1] = test system: A549 NSCLC
[2] = test system: NCI/ADR-RES ovarian
[3] = test system: M14 melanoma
[4] = test system: ACHN renal
[5] = test system: SW-620 colon
[6] = test system: 786-0 renal
[7] = test system: UO-31 renal
[8] = test system: OVCAR-4 ovarian
[9] = test system: PC-3 prostate
[10] = test system: HCT-15 colon
[11] = test system: IGROV1 ovarian
[12] = test system: A498 renal
[13] = test system: EKVX NSCLC

Cc1c2oc3c(C)ccc(C(=O)N[C@@H]4C(=O)N[C@H](C(C)C)C(=O)N5CCC[C@H]5C(=O)N(C)CC(=O)N(C)[C@@H](C(C)C)C(=O)O[C@H]4C)c3nc-2c(C(=O)N[C@@H]2C(=O)N[C@H](C(C)C)C(=O)N3CCC[C@H]3C(=O)N(C)CC(=O)N(C)[C@@H](C(C)C)C(=O)O[C@H]2C)c(N)c1=O (I: [aThr][dV]P[Sar][NMeV] / II: [aThr][dV]P[Sar][NMeV]; ester I:1-I:C, II:1-II:C; linker I:N-II:N via Actinocin(9to1))
TGI [1]: 1370 nM
GI50 [2]: 571 nM
TGI [2]: 2830 nM
TGI [3]: < 11.2 nM
TGI [4]: 16.5 nM
TGI [5]: < 35.1 nM
TGI [6]: 18.8 nM
GI50 [7]: < 11.9 nM
TGI [7]: 26.8 nM
TGI [8]: < 26.6 nM
TGI [9]: 57.1 nM
TGI [10]: 69 nM
TGI [11]: 13.8 nM
TGI [12]: < 16.5 nM
TGI [13]: 43.5 nM
